Data on seven compounds can be found in US4332820A, “Substituted benzonitriles having antiviral activity” (The Dow Chemical Company, priority 1980, dated 1982).

For data set [1], the system named is Cox A21. Nature of the data set: Single Oral Dose test in mice challenged with Cox A21. It counts as in vivo, Swiss male mice. The settings on record: po, 600 mg/kg, 3 h.
In data set [2] the test system is rhinovirus type 1A (RV-1A). In words: Tissue culture antiviral testing, RV-1A (cytopathic effect, HeLa cells). It counts as cell-based. The settings on record: Enterovirus, HeLa cells, NA = not active at the standard test conditions, read-out: Lowest concentration of the compound necessary to cause a 50 percent reduction in cytopathic effect. (Protection from cytopathic effect is a common read-out in antiviral testing.)

Data set [3] concerns Coxsackie A21 virus (Cox A21). In words: Tissue culture antiviral testing, Cox A21 (cytopathic effect, HeLa cells). The settings on record: HeLa cells, NA = not active at the standard test conditions, read-out: Lowest concentration of the compound necessary to cause a 50 percent reduction in cytopathic effect. It is filed as cell-based.
Data set [4] deals with rhinovirus type 2 (RV-2). In words: Tissue culture antiviral testing, RV-2 (cytopathic effect, HeLa cells). To be noted: Enterovirus, HeLa cells, NA = not active at the standard test conditions, read-out: Lowest concentration of the compound necessary to cause a 50 percent reduction in cytopathic effect. It counts as cell-based.
Data set [5] relates to Coxsackie A21 virus. Nature of the data set: Continuous Oral Feeding test in mice challenged with Coxsackie A21. It counts as in vivo. To be noted: po, 0.06 % in diet, 240 h, 0.06 % strength.
Data set [6] is described as follows: Cytotoxicity in tissue culture (HeLa monolayers). To be noted: human; HeLa cells; observed at 48 and 72 hours post-treatment; read-out: Cytotoxicity (concentration of the compound found to be toxic to the cell). It is filed as cell-based.
Data set [7] concerns rhinovirus type 8 (RV-8). In words: Tissue culture antiviral testing, RV-8 (cytopathic effect, HeLa cells). It is filed as cell-based. To be noted: Enterovirus, HeLa cells, read-out: Lowest concentration of the compound necessary to cause a 50 percent reduction in cytopathic effect.
In data set [8] the test system is rhinovirus type 5 (RV-5). In words: Tissue culture antiviral testing, RV-5 (cytopathic effect, HeLa cells). It is filed as cell-based. To be noted: Enterovirus, HeLa cells, read-out: Lowest concentration of the compound necessary to cause a 50 percent reduction in cytopathic effect.

≈ marks a conversion by molar mass, not a printed value.

In the case of `N#Cc1cc([N+](=O)[O-])ccc1Sc1ccc(Cl)cc1` [Example 12, 2-((4-Chlorophenyl)thio)-5-nitrobenzonitrile], in data set [1], the “X^2 (Single Oral Dose, chi-square of deaths vs virus control)” value is listed as 4.805. The EC50 in data set [2] was roughly 3.12 µg/mL (≈ 10.7 µM); in data set [3], 1.6 µg/mL (≈ 5.5 µM); in data set [4], no more than 1.6 µg/mL. For the same compound, the “X^2 (Continuous Oral Feeding, chi-square of deaths)” value in data set [5] is recorded as 0.215. Besides, in data set [6], the MCC is 25 µg/mL.

Consider `N#Cc1cc([N+](=O)[O-])ccc1Oc1ccc(Br)cc1` [Example 3, 2-(4-Bromophenoxy)-5-nitrobenzonitrile], for which the “X^2 (Single Oral Dose, chi-square of deaths vs virus control)” value in data set [1] came to 2.139. For the same compound, the EC50 in data set [2] amounted to 1.25 µg/mL (≈ 3.92 µM); in data set [3] it was 2.5 µg/mL (≈ 7.83 µM); in data set [4] it was 1.25 µg/mL (≈ 3.92 µM). Further, the “X^2 (Continuous Oral Feeding, chi-square of deaths)” value in data set [5] was 5.81. Moreover, the MCC in data set [6] was greater than 100 µg/mL.

With `C[S+]([O-])c1ccc(Oc2ccc([N+](=O)[O-])cc2C#N)cc1` (stereo not shown) [Example 7, 2-(4-(Methylsulfinyl)phenoxy)-5-nitrobenzonitrile], the “X^2 (Single Oral Dose, chi-square of deaths vs virus control)” value in data set [1] amounted to 18.94. Further, the EC50 in data set [3] was less than 6.25 µg/mL; in data set [4] it was 6.25 µg/mL (≈ 20.7 µM). For the same compound, in data set [5], the “X^2 (Continuous Oral Feeding, chi-square of deaths)” value came to 18.82. Besides, in data set [6], the MCC worked out at 50 µg/mL.

`N#Cc1cc([N+](=O)[O-])ccc1Oc1ccc(Cl)cc1` [Example 4, 2-(4-Chlorophenoxy)-5-nitrobenzonitrile]: the “X^2 (Single Oral Dose, chi-square of deaths vs virus control)” value in data set [1] came to 0.252. For the same compound, the EC50 in data set [2] is no more than 0.625 µg/mL; in data set [3], 0.625 µg/mL (≈ 2.28 µM); in data set [7] it was less than 6 µg/mL; in data set [4] it was no more than 0.625 µg/mL; in data set [8], less than 0.3 µg/mL. Moreover, the “X^2 (Continuous Oral Feeding, chi-square of deaths)” value in data set [5] was 10.61. Besides, in data set [6], the MCC is greater than 100 µg/mL.

As to `N#Cc1cc([N+](=O)[O-])ccc1Oc1ccc(Cl)cc1Cl` [Example 2, 2-(2,4-Dichlorophenoxy)-5-nitrobenzonitrile], the “X^2 (Single Oral Dose, chi-square of deaths vs virus control)” value in data set [1] is on record as 3.659. Further, the EC50 in data set [2] turned out to be 0.625 µg/mL (≈ 2.02 µM); in data set [3] it was 1.25 µg/mL (≈ 4.04 µM); in data set [7], 2.5 µg/mL (≈ 8.09 µM); in data set [4], 0.625 µg/mL (≈ 2.02 µM); in data set [8], 2.5 µg/mL (≈ 8.09 µM). Moreover, in data set [5], the “X^2 (Continuous Oral Feeding, chi-square of deaths)” value is given as 1.38. Moreover, the MCC in data set [6] is greater than 100 µg/mL.

As to `CS(=O)(=O)c1ccc(Oc2ccc([N+](=O)[O-])cc2C#N)cc1` [Example 8, 2-(4-(Methylsulfonyl)phenoxy)-5-nitrobenzonitrile], the “X^2 (Single Oral Dose, chi-square of deaths vs virus control)” value in data set [1] was 0.095. Also, the EC50 in data set [3] was less than 6.25 µg/mL; in data set [4], 12.5 µg/mL (≈ 39.3 µM). The “X^2 (Continuous Oral Feeding, chi-square of deaths)” value in data set [5] worked out at 10.45. Also, in data set [6], the MCC was greater than 100 µg/mL.

Turning to `N#Cc1cc([N+](=O)[O-])ccc1Oc1ccc(Oc2ccccc2)cc1` [Example 5, 2-(4-Phenoxyphenoxy)-5-nitrobenzonitrile], the “X^2 (Single Oral Dose, chi-square of deaths vs virus control)” value in data set [1] is given as 0.719. The EC50 was less than 6.25 µg/mL in data set [3] and 50 µg/mL (≈ 150 µM) in data set [4]. For the same compound, the “X^2 (Continuous Oral Feeding, chi-square of deaths)” value in data set [5] stood at 0.26. Moreover, in data set [6], the MCC was greater than 100 µg/mL.
